Experimental data published in patent US20240132431A1, “METHOD FOR ALKYLATING ACIDIC FUNCTIONAL GROUP” (Chugai Seiyaku Kabushiki Kaisha, priority 2021, published 2024).

Target: T1, Bcl-2 protein (Recombinant Human Bcl-2 Protein) (Homo sapiens, UniProt P10415)
T1 construct: purchased Novus NBP2-34889
Assay: Binding evaluation of mixture library compounds to Bcl-2 using AS-MS (affinity selection mass spectrometry)
Settings: ASMS Ratio(%)=(A−C)/B×100; for ASMS ratio (%) n = 1: replicate n = 1; for ASMS ratio (%) n = 2: replicate n = 2
Method: For one well of MICROPLATE, 96-well, PP, V-BOTTOM (Greiner bio-one, 651201), DMSO solutions of 12 mixtures (prepared to approximately 0.58 mM based on calculations from the average molecular weight of each mixture), in each of which 100 compounds are mixed, were each dispensed, and dispensed into a total of 12 wells, where the 12 mixtures are mixAI-B4J-01, mixAI-B1M-01, mixAI-B1K-01, mixAI-B10-01, mixAI-B1A-01, mixAI-B3A-01, mixAI-B21-01, mixAI-B2L-01, mixAI-B2N-01, mixAI-B2A-01, mixAI-B2Q-01, and mixAI-B2R-01 listed in [Table AI-03-B4J-01], [Table AI-03-B1M-01], [Table AI-03-B1K-01], [Table AI-03-B10-01], [Table AI-03-B1A-01], [Table AI-03-B3A-01], [Table AI-03-B2I-01], [Table AI-03-B2L-01], [Table AI-03-B2N-01], [Table AI-03-B2A-01], [Table AI-03-B2Q-01], and [AI-03-B2R-01] shown in Example 6. Using the LABCYTE ECHO® 555 Acoustic Dispensing System (BECKMAN COULTER), 70 nL was collected from each of the 12 wells into one arbitrary well to prepare a sample solution with 1200 compounds in the mixed state (the presence of 1152 compounds had already been identified when prepared in Example 6-5-3). (In the present specification, the mixture collected in this one well is referred to as one library.) Furthermore, a Bcl-2 protein (Novus, NBP2-34889, Recombinant Human Bcl-2 Protein, Lot E60145051) (19.2 μL) that had been prepared in advance to be 20.9 μM using a Tris-HCl buffer (25 mM Tris-HCl pH 7.4, 150 mM NaCl, 0.025% Tween-20, 1 mM DTT) was added to the well in which 1200 compounds (the presence of 1152 compounds had already been identified when prepared in Example 6-5-3) were dispensed (final compound concentration […], final Bcl-2 concentration 20 μM), and the mixture was incubated in the dark at 23° C. for 1 hour. Next, using the 96-well MacroSpin column, P-2 Material (Harvard, 74-5655) that had been swollen, conditioning of the 96-well MacroSpin column was performed three times by centrifugation with 200 μL of an assay buffer (25 mM Tris-HCl pH 7.4, 150 mM NaCl, 0.025% Tween-20, 1 mM DTT), 2000 XG, 4° C., 2 min. Subsequently, 20 μL of the sample after incubation was added to the 96-well MacroSpin column, P-2 Material, that had been conditioned, and SEC treatment was performed by centrifugation at 2000×G for 2 minutes. To the liquid passed from the SEC, 32 μL of a 1:1 mixed solution of acetonitrile and methanol (LC/MS grade, Fujifilm Wako Pure Chemical Corporation) was added, the mixture was centrifuged at 1800×G, 4° C., 5 min, and the supernatant was used as analysis sample ASMS (A), while a sample that had been prepared by the same operations at 1200 compounds/well and to which only the Tris-HCl buffer had been added without the Bcl-2 protein was incubated under the same conditions, no 96-well MacroSpin column treatment was performed, the same organic solvent was added, and the supernatant solution obtained by centrifugation was used as STD (B). Next, a sample that had been prepared by the same operations at 1200 compounds/well and to which only the Tris-HCl buffer had been added without the Bcl-2 protein was incubated under the same conditions, the same 96-well MacroSpin column treatment was performed, the same organic solvent was added, and the supernatant solution obtained by centrifugation was used as BK (C), and measured by reversed phase LC/MS.
Then, analysis of the 1200 compounds was carried out for samples A, B, and C with TraceFinder 5.1 (Thermo Fisher Scientific) and CHANCE Software (in-house), and the ASMS Ratio (%) was calculated according to the following calculation formula.
Calculation formula: ASMS Ratio(%)=(A−C)/B×100

[1] = AS-MS, mixture of 1200 compounds, Bcl-2
[2] = AS-MS on the mixture of 1200 library compounds

T1 sequence (P10415 whole entry): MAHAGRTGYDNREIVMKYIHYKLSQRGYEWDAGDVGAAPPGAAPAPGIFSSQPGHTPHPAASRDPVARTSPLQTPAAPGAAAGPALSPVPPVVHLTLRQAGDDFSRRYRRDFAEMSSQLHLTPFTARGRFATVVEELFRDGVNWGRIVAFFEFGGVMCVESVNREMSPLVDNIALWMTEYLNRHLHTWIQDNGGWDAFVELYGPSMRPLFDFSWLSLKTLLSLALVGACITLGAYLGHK

Row | Substance | ASMS ratio (%) n = 1 [1] [%] | ASMS ratio (%) n = 2 [1] [%] | ASMS ratio (%) n = 1 [2] [%] | ASMS ratio (%) n = 2 [2] [%]
1 | 4-[4-[[3-(5-Ethoxypyridin-3-yl)-5-(trifluoromethoxy)phenyl]methyl]piperazin-1-yl]-N-propylbenzamide [B1M034-01] | −0.3 | −0.2 | – | –
2 | 4-[4-[[3-(5-Ethoxypyridin-3-yl)-5-(trifluoromethyl)phenyl]methyl]piperazin-1-yl]-N-propylbenzamide [B1M028-01] | 0.0 | 0.0 | – | –
3 | 4-[4-[[3-(5-Ethoxypyridin-3-yl)-5-propan-2-yloxyphenyl]methyl]piperazin-1-yl]-N-propylbenzamide [B1M017-01] | −0.1 | 0.3 | – | –
4 | 4-[4-[[3-Ethoxy-5-(3-ethoxyphenyl)phenyl]methyl]piperazin-1-yl]-N-propylbenzamide [B1M009-01] | – | 0.0 | – | –
5 | 4-[4-[[3-Ethoxy-5-(5-ethoxypyridin-3-yl)phenyl]methyl]piperazin-1-yl]-N-propylbenzamide [B1M011-01] | 18.6 | 7.5 | – | –
6 | 4-[4-[[4-(3-Ethoxyphenyl)-2,6-dimethoxyphenyl]methyl]piperazin-1-yl]-N-propylbenzamide [B1M020-01] | 0.0 | 0.0 | – | –
7 | 4-[4-[[4-(3-Ethoxyphenyl)-2-ethylphenyl]methyl]piperazin-1-yl]-N-propylbenzamide [B1M069-01] | −0.2 | −4.4 | – | –
8 | 4-[4-[[4-(3-Ethoxyphenyl)-2-methoxyphenyl]methyl]piperazin-1-yl]-N-propylbenzamide [B1M093-01] | – | – | 0.0 | 0.0
9 | 4-[4-[[4-(3-Ethoxyphenyl)naphthalen-1-yl]methyl]piperazin-1-yl]-N-propylbenzamide [B1M044-01] | 1.0 | 1.1 | – | –
10 | 4-[4-[[4-(3-Ethoxyphenyl)thiophen-2-yl]methyl]piperazin-1-yl]-N-propylbenzamide [B1M048-01] | 0.9 | 0.3 | – | –
11 | 4-[4-[[4-(5-Ethoxypyridin-3-yl)-2,6-dimethoxyphenyl]methyl]piperazin-1-yl]-N-propylbenzamide [B1M022-01] | −13.6 | 6.7 | – | –
12 | 4-[4-[[4-(5-Ethoxypyridin-3-yl)-2-methoxyphenyl]methyl]piperazin-1-yl]-N-propylbenzamide [B1M099-01] | – | – | −0.7 | −0.3
13 | 4-[4-[[4-(5-Ethoxypyridin-3-yl)-3-fluorophenyl]methyl]piperazin-1-yl]-N-propylbenzamide [B1M085-01] | – | – | 0.0 | 0.0
14 | 4-[4-[[4-(5-Ethoxypyridin-3-yl)-3-methylphenyl]methyl]piperazin-1-yl]-N-propylbenzamide [B1M064-01] | 5.4 | −4.3 | – | –
15 | 4-[4-[[4-(5-Ethoxypyridin-3-yl)naphthalen-1-yl]methyl]piperazin-1-yl]-N-propylbenzamide [B1M046-01] | 0.7 | −1.2 | – | –
16 | 4-[4-[[4-(5-Ethoxypyridin-3-yl)thiophen-2-yl]methyl]piperazin-1-yl]-N-propylbenzamide [B1M050-01] | −2.0 | −0.2 | – | –
17 | 6-[4-[2-[2-(3-Ethoxyphenyl)ethynyl]benzoyl]piperazin-1-yl]-N-propylpyridazine-3-carboxamide [B1M095-01] | – | – | 0.0 | 0.0
18 | 6-[4-[2-[2-(5-Ethoxypyridin-3-yl)ethynyl]benzoyl]piperazin-1-yl]-N-propylpyridazine-3-carboxamide [B1M096-01] | – | – | – | 0.0
19 | 6-[4-[3-(3-Ethoxyphenyl)-5-(trifluoromethyl)benzoyl]piperazin-1-yl]-N-propylpyridazine-3-carboxamide [B1M089-01] | – | – | 3.9 | 0.2
20 | 6-[4-[3-(5-Ethoxypyridin-3-yl)-5-(trifluoromethyl)benzoyl]piperazin-1-yl]-N-propylpyridazine-3-carboxamide [B1M007-01] | 0.3 | 0.3 | – | –
21 | 6-[4-[3-[2-(3-Ethoxyphenyl)ethynyl]-5-(trifluoromethyl)benzoyl]piperazin-1-yl]-N-propylpyridazine-3-carboxamide [B1M013-01] | 2.9 | −1.1 | – | –
22 | 6-[4-[3-[2-(3-Ethoxyphenyl)phenyl]propanoyl]piperazin-1-yl]-N-propylpyridazine-3-carboxamide [B1M067-01] | −1.6 | −87.4 | – | –
23 | 6-[4-[3-[2-(5-Ethoxypyridin-3-yl)ethynyl]-5-(trifluoromethyl)benzoyl]piperazin-1-yl]-N-propylpyridazine-3-carboxamide [B1M018-01] | 0.0 | 0.0 | – | –
24 | 6-[4-[3-[2-(5-Ethoxypyridin-3-yl)phenyl]propanoyl]piperazin-1-yl]-N-propylpyridazine-3-carboxamide [B1M077-01] | −0.7 | 3.1 | – | –
25 | 6-[4-[3-[4-(3-Ethoxyphenyl)pyrazol-1-yl]-5-(trifluoromethyl)benzoyl]piperazin-1-yl]-N-propylpyridazine-3-carboxamide [B1M024-01] | 0.0 | 0.0 | – | –
26 | 6-[4-[3-[4-(5-Ethoxypyridin-3-yl)pyrazol-1-yl]-5-(trifluoromethyl)benzoyl]piperazin-1-yl]-N-propylpyridazine-3-carboxamide [B1M030-01] | 0.0 | −5.9 | – | –
27 | 6-[4-[3-tert-Butyl-5-(3-ethoxyphenyl)benzoyl]piperazin-1-yl]-N-propylpyridazine-3-carboxamide [B1M060-01] | 0.0 | 0.0 | – | –
28 | 6-[4-[3-tert-Butyl-5-(5-ethoxypyridin-3-yl)benzoyl]piperazin-1-yl]-N-propylpyridazine-3-carboxamide [B1M061-01] | −3.3 | −13.1 | – | –
